# Measured values: article PMC5913127 (Scientific Reports, 2018)
# How the values were obtained:
# aducanumab = experiment: ELISA of aducanumab on plates coated with truncated Aβ peptides; format: binding, human; settings: for EC50: aducanumab on peptide coated or captured at 5 μg/mL (multivalent effects), antibody from 100 nM, 2 h room temperature, read-out: Binding activity (EC50); for Fold reduction (relative to Aβ1-42): reduction of aducanumab binding affinity, peptide 5 μg/mL
# Method: For N-terminally truncated Aβ peptides, untagged peptides were used. For ELISA, 96-well microplates were coated with 5 μg/mL peptide in Coating Buffer (15 mM Na2CO3, 35 mM NaHCO3, pH 9.6) overnight at 4 °C. Plates were washed and non-specific binding sites were blocked with 2% BSA in PBS for 1 h at 25 °C. Serially diluted antibody starting from 100 nM in Assay Buffer (2% BSA in PBS) was added, and the plates were incubated for 2 h at room temperature. Binding was determined by incubation with an HRP-conjugated goat anti-human polyclonal antibody (Jackson ImmunoResearch) followed by measurement of HRP activity using Ultra TMB ELISA Colorimetric Substrate Solution (Thermo Fisher Scientific). For C-terminally truncated Aβ peptides, biotin-conjugated peptides were used. The biotin was attached synthetically to the C terminus of the protein by incorporation of a non-native lysine residue. For ELISA, biotin-conjugated peptides were incubated for 1 h at room temperature, at a concentration of 5 μg/mL in Assay Buffer, using plates that were pre-coated with neutravidin (Thermo Fisher Scientific, Reacti-Bind plates). Plates were washed, antibodies diluted serially in Assay Buffer were added, and binding was measured as described above.
# Aβ (Monomer, Aggregate) = settings: A = aggregate, M = monomer; ref [9]–[19],[54] as given per antibody in column Ref. of Table 1; cited from earlier work
EC50 (aducanumab) [nM],Substance,Fold reduction (relative to Aβ1-42) (aducanumab) [fold],Fold reduction (relative to Aβ1-42) (aducanumab; listed as Aβ5-42) [fold],"Aβ selectivity (Monomer, Aggregate) (Aβ (Monomer, Aggregate))"
36,5–42: untagged N-terminally truncated Aβ peptide,96,> 40,
140,6–42: untagged N-terminally truncated Aβ peptide,390,,
150,8–42: untagged N-terminally truncated Aβ peptide,400,,
,solanezumab: anti-Aβ clinical candidate antibody; mouse analog m266,,,M ≫ A
